# Data from patent publication US9796755B2, “Methods of treating depression and other related diseases” (Northwestern University, priority 2009, dated 2017).
# Tests used:
# [1] = tested on: patients suffering with refractory depression; conditions: cited from earlier work
# [2] = literature (Bristow et al. 1996; Parsons et al. 1997); cited from earlier work
# rats [3] = assay: Porsolt test (Forced Swim Test), systemic dosing; assay type: in vivo, rat
# Experimental: For the evaluation of the antidepressant actions of GLYX-13, the effect of GLYX-13 in the Porsolt test of depression was examined in rats. Porsolt testing is the most commonly used test for assessment of depression in animal model, Porsolt testing, also known as Forced Swim Test, is based on a behavioral trait that is sensitive to changes in affective state. During this test, the animal is placed in a tank (18 cm diameter×45 cm height) filled to 30 cm with 22-23° C. water. After placing the animal in the tank, the amount of time for which the rat is immobile when it stops struggling is measured. Porsolt test is based on the fact that antidepressants increase the latency to immobility and decrease the time for which the rat is immobile. […] The interpretation of the Porsolt test is that the antidepressants reinstate active coping mechanisms and decrease the passive immobility evoked by stress.
# In order to evaluate the effectiveness of GLYX-13 as antidepressant, three month old FBNF1 rats were separated into two groups of 9 animals. The first group of rats was intravenously injected with 10 mg/kg GLYX-13 and the second group of animals was intravenously injected with PBS vehicle (1 ml/kg) in a blind manner via chronic subdural femoral vein access ports. Both groups of animals were injected 10 to 15 minutes before the start of testing.
# For Porsolt testing, animals were given a 15 minute pre-test habituation in the tank to induce learned helplessness on day one. Following this, on the subsequent day, the animals were injected with GLYX-13 or vehicle 10-15 minutes before being placed into the tank for a 5 minute test session. After placing the animals in the tank, the amount of time for which each animal is immobile when it stops struggling (Mean Immobility Time) was measured. Decrease in Mean Immobility Time is a measure of the effectiveness of the antidepressant.
# A second experiment was performed in the same manner as Example 1, except that 2-3 month Sprague-Dawley rats were used, and treated with either intravenous (1, 3, 10, 32 mg/kg), subcutaneous (1, 3, 10, 32, 56, 100 mg/kg) injections of GLYX-13 or saline vehicle (1 mg/ml) 15 (i,v.) or 20 (s.c.) min before the start of the final 5 min test session. Ketamine (10 mg/kg i.p.) was given 60 min befbre the start of testing (Garcia et al., (2008) Prog Neuropsychopharmacol Biol Psychiatry, 32, 140-144).
# To determine whether the antidepressant effect of GLYX-13 was specific to the sequence of the GLXY-13 peptide, mean time (sec) spent floating in the Porsolt test was determined in groups of 12 three-month old Sprague Dawley rats administered with GLYX-13 (TPPT-NH2 (SEQ ID NO: 13); 3 mg/kg , i.v. tail vein), a scrambled peptide (PTPT-NH3(SEQ ID NO: 19); 3 mg/kg i.v. tail vein), or 0.9% saline vehicle (1 ml/kg, i.v. tail vein). Administration occurred 60 min before the 5 min testing session. Animals received a 15 min training swim session one day before dosing.
# To evaluate whether the anti-depressive and anxiolytic effects of GLYX-13 would persist beyond a few hours, rats were tested in the Porsolt test and the Open Field test, described above. Groups of 10-11 three-month old Sprague-Dawley rats were pretreated with GLYX-13 (3 mg/kg i.v.), ketamine (10 mg/kg i.v.) or saline vehicle injection (1 mg/ml i.v. tail vein) 96 hrs before the start of testing. Animals received a single 15 min. training swim session one day before dosing. Animals were tested 96 hrs post dosing in the Porsolt test without any testing during the intervening period. Open field testing was conducted without pre-habituation 1 day after Porsolt testing (i.e. 120 hrs post dosing). Mean(±SEM) time (sec.) spent floating in the Porsolt test, time spent in the center compartment (sec.), and line crosses in the open field test were determined.
# The Porsolt test adapted for use in rats was performed as above. […]
# rats [4] = assay: Drug discrimination in rats trained to discriminate ketamine from saline
# Experimental: Testing was conducted as described previously (Nicholson K L & Balster R L (2009) The discriminative stimulus effects of N-methyl-D-aspartate glycine-site ligands in NMDA antagonist-trained rats. Psychopharmacology (Berl) 203(2):441-451). Adult male Sprague Dawley rats were trained to discriminate ketamine (10 mg/kg IP) from saline. Animals were then tested following various doses of GLYX-13 administration (3-156 mg/kg SC) and the percent of ketamine lever responding and rates of responding were recorded.
# rats [5] = assay: Prepulse inhibition; assay type: in vivo, rat; conditions: Sprague-Dawley rats; GLYX-13 10 mg/kg IV tested 15 min post injection; ketamine 10 mg/kg IP tested immediately
# Experimental: Animals were given intravenous injections of GLYX-13 (10 mg/kg) or saline via chronic indwelling femoral vein cannulae and tested 15 min post injection, or intraperitoneal ketamine (10 mg/kg) or saline vehicle (1 mL/kg IV or IP respectively) and tested immediately post injection for prepulse inhibition.
# rats [6] = assay: Conditioned place preference; assay type: in vivo, rat; conditions: GLYX-13 10 mg/kg IV; ketamine 10 mg/kg IV
# Experimental: Animals were trained with GLYX-13 (10 mg/kg, IV), ketamine (10 mg/kg, IV), or saline vehicle (1 mL/kg, IV) utilizing an unbiased two-chamber conditioned place preference apparatus.
# [7] = tested on: glycogen synthase kinase 3β (GSK-3β); assay: Total and phosphoserine-9 GSK-3β by ELISA in medial prefrontal cortex; assay type: in vivo, rat; conditions: 24 hrs after GLYX-13 3 mg/kg IV or ketamine 10 mg/kg IV
# Source text: (§1) Total and Phosphoserine-9 glycogen synthase kinase 3β (GSK-3β) were quantified by ELISA according to the manufacturer's instructions (catalog numbers ADI-900-144 and ADI-900-123A, Assay Designs, USA). Total and phosphoserine-845 GluR1 were quantified by Western blot.
# β-catenin = assay: Total β-catenin protein level in medial prefrontal cortex; assay type: in vivo, rat; conditions: 24 hrs after GLYX-13 3 mg/kg IV or ketamine 10 mg/kg IV
# GluR1 = assay: Total and phosphoserine-845 GluR1 by Western blot in medial prefrontal cortex; assay type: in vivo, rat; conditions: 24 hrs after GLYX-13 3 mg/kg IV or ketamine 10 mg/kg IV
# Source text: as §1
structure (smiles),measurement,setting,value
"C[C@@H]([C@@H](O)c1ccc(O)cc1)N1CCC(O)(c2ccccc2)CC1 [CPC-101,606]",Hamilton Depression Rating Score,[1],significant reductions
"O=c1[nH]c2cc(Cl)ccc2c(O)c1-c1cccc(Oc2ccccc2)c1 [L-701,324]",anticonvulsant effects relative to ataxia (therapeutic index),[2],anticonvulsant effects at doses that produced ataxia
"NS(=O)(=O)c1cccc2c1c([N+](=O)[O-])cc1nc(O)c(O)nc12 [NBQX, reference compound]",effect of NBQX pretreatment on the antidepressant-like effect of GLYX-13 (floating time),"rats [3]; NBQX 10 mg/kg IP before GLYX-13 3 mg/kg IV, tested 1 hr post dosing",blocked the antidepressant-like effect of GLYX-13
"CNC1(c2ccccc2Cl)CCCCC1=O (stereo not drawn) [ketamine, reference compound]",dissociative side effects,"rats [3]; 10 mg/kg subcutaneous, testing 20 min post dosing",severe dissociative side effects
same,effect on floating times in the Porsolt test,"rats [3]; Sprague Dawley rats, 10 mg/kg IP, 20-60 min post dosing",reduced floating times
same,suppression of operant responding (rates of responding),"rats [4]; IP, 30 mg/kg (higher dose)",suppress operant responding
same,ketamine-like discriminative stimulus effects (ketamine-lever selection),"rats [4]; IP, 5.6-30 mg/kg",dose-dependent increases in ketamine-lever selection
same,suppression of operant responding (rates of responding),"rats [4]; SC, 10 mg/kg (higher dose)",suppress operant responding
same,ketamine-like discriminative stimulus effects (ketamine-lever selection),"rats [4]; SC, 1-10 mg/kg",dose-dependent increases in ketamine-lever selection
same,"prepulse inhibition, an indicator of dissociative effects",rats [5],decreased prepulse inhibition
same,"conditioned place preference, an indicator of abuse potential",rats [6],induced conditioned place preference
same,phosphoserine-9 GSK-3β/total GSK-3β ratio,[7],reduced
same,total β-catenin,β-catenin,reduced
same,Phosphoserine-845 GluR1/total GluR1 ratio,GluR1,increased
same,Hamilton Depression Rating Score,[1],significant reductions
